How the values were obtained:
[1] = tested on: hypertensive male rats of the Akamoto-Aoki line; assay: Variation of arterial pressure upon intraperitoneal administration to hypertensive rats; format: in vivo
Method: The study of hypotensive properties of the compounds of this invention has been carried out of hypertensive male rats of the Akamoto-Aoki line aged 25-30 weeks. The animals were divided into groups (7-10 rats in each) and for 2 weeks before the beginning of the experiment they were subjected to an every-day training for adaptation to the unit for measurements of the arterial pressure. The systolic and diastolic arterial pressure were measured indirectly on the tail artery. The level of the arterial pressure prior to administration of the test compounds was measured by way of a triple determination thereof--2 days, one day and right before the administration of the preparation. The compounds were administered intraperitoneally in the form of a 2.5% aqueous solution or a 2.5% suspension in Twin-80 in the dose of 50 mg/kg. The measurement of the arterial pressure was effected 30 minutes, 1, 2, 3 and 4 hours and in some cases 24 hours after the administration of the preparation. For a number of compounds featuring a high efficiency, also determined was the dose causing reduction of the arterial pressure by 30% as compared with the starting level (ED30). The statistical processing of the data obtained was carried out using the Student certainty criterion.

[2] = tested on: spontaneously hypertensive rats of the Akamoto-Aoki line; assay: Hypotensive activity on spontaneously hypertensive rats at a single peroral administration; format: in vivo; conditions: for Systolic arterial pressure: ethyl 40 mg/kg (initial 198), benzyl 40 mg/kg (initial 196)
[3] = tested on: arrhythmia caused by introduction of calcium chloride; assay: Antiarrhythmic activity on the model of arrhythmia caused by calcium chloride (antagonism towards calcium); format: in vivo, mice; conditions: for Dose of calcium chloride causing arrhythmia: control 85.0; for Dose of calcium chloride causing heart arrest: control 100.0
Method: In experiments on white mice with a mass of 18-25 g narcotized with urethane an electrocardiogram was recorded in the second standard lead. A 2% solution of calcium chloride was introduced into the tail vein at a constant rate (0.01 ml for 2 seconds). The dose of calcium chloride causing arrhythmia and the dose causing heart arrest were determined. In experimental groups the test compounds were administered 20-40 minutes prior to the beginning of the experiment intraperitoneally.

[4] = tested on: spontaneously hypertensive rats of the Akamoto-Aoki line; assay: Systolic arterial pressure of spontaneously hypertensive rats upon a repeated peroral administration; format: in vivo
Method: Thus, after a four-days course of administration (once a day, per os) of the compounds according to the present invention an essential reduction of the arterial pressure in the test animals is observed which is not returned to the initial level even an expiration of four days after discontinuation of the preparation administration, whereas the hypotensive effect of nifedipine is manifested for only 8 hours.

white mice = assay: Acute toxicity upon intraperitoneal administration to white mice; format: in vivo; conditions: i.p.
Method: (§1) The acute toxicity of the compounds according to the present invention was studied on white mice of both sexes with a mass of 20-25 g. A saturated aqueous solution of the compounds or a suspension in Tween-80 was administered to the animals intraperitoneally. The observation over the animals was carried out for 14 days. The results obtained were processed following the Litchfield-Wilkoxon method. As it follows from the data shown in Table 5 hereinbelow, the studied compounds have a very low acute toxicity, thus providing a large spectrum of the therapeutic effect.

[5] = as above; format: in vivo; conditions: mouse, in vivo, ip, 14 days observation, average values with confidential limits at P=0.05
Method: as §1

[6] = tested on: adrenaline-caused arrhythmia; assay: Adrenaline-caused arrhythmia in narcotized guinea pigs; format: in vivo; conditions: for ED50: Cavia porcellus, iv, intravenously, dose giving antiarrhythmic effect in 50% of the experiments
Method: A further study of the antiarrhythmic activity of the compounds according to the present invention was connected with the determination of their effect on experimental arrhythmia induced by adrenaline.
Guinea pigs of both sexes with a mass of 400-700 g were narcotized with urethane (1,500 mg/kg intraperitoneally) The standard second-lead electrocardiogram was recorded. Arrhythmia was caused by a rapid injection (intravenously) of adrenaline in the dose of […]. To find out the protective antiarrhythmia effect of the compounds according to the present invention, the number of animals in which the total number of ectopic contractions was reduced by 50% and more as compared to the control experiments was recorded. […] The results obtained in this study of the antiarrhythmic properties of some of the compounds according to the present invention and novocainamide on the adrenaline model of arrhythmia are shown in Table 7.

[7] = 30 minutes, 50 mg/kg i.p. (nifedipine 1 mg/kg i.p.)
[8] = 1 hour, 50 mg/kg i.p. (nifedipine 1 mg/kg i.p.)
[9] = 2 hours, 50 mg/kg i.p. (nifedipine 1 mg/kg i.p.)
[10] = 4 hours, 50 mg/kg i.p. (nifedipine 1 mg/kg i.p.)
[11] = 1 hour after single p.o., ethyl 40 mg/kg, benzyl 40 mg/kg
[12] = 3 hours after single p.o., allyl 50 mg/kg (initial 184)
[13] = 3 hours after single p.o., ethyl 40, allyl 50, benzyl 40 mg/kg
[14] = 5 hours after single p.o., allyl 50 mg/kg (initial 184)
[15] = 5 hours after single p.o., ethyl 40, allyl 50, benzyl 40 mg/kg
[16] = 24 hours after single p.o., allyl 50 mg/kg (initial 184)
[17] = 24 hours after single p.o., ethyl 40, allyl 50, benzyl 40 mg/kg
[18] = after four-days p.o. course, benzyl 40 mg/kg, allyl 50 mg/kg, nifedipine dose not given
[19] = p.o. once a day, benzyl 40 mg/kg, allyl 50 mg/kg, nifedipine dose not given
[20] = p.o., benzyl 40 mg/kg, allyl 50 mg/kg, nifedipine dose not given

C[N+](C)(Cc1ccccc1)NCCC(=O)[O-] [3-(2,2-dimethyl-2-benzylhydrazinium)propionate]
Average variation of the diastolic arterial pressure [1, 7]: -14 % of the initial
Average variation of the systolic arterial pressure [1, 7]: -14 % of the initial
Average variation of the diastolic arterial pressure [1, 8]: -14 % of the initial
Average variation of the systolic arterial pressure [1, 8]: -14 % of the initial
Average variation of the diastolic arterial pressure [1, 9]: -21 % of the initial
Average variation of the systolic arterial pressure [1, 9]: -15 % of the initial
Average variation of the diastolic arterial pressure [1, 10]: -21 % of the initial
Average variation of the systolic arterial pressure [1, 10]: -14 % of the initial
Average variation of the diastolic arterial pressure ([1]; 24 hours, 50 mg/kg i.p.): -15 % of the initial
Average variation of the systolic arterial pressure ([1]; 24 hours, 50 mg/kg i.p.): -9 % of the initial
Systolic arterial pressure ([2]; 1 hour after single p.o.): 155 mm Hg
Systolic arterial pressure, percent in parentheses (decrease from initial) [2, 11]: 21%
Systolic arterial pressure [2, 12]: 150 mm Hg
Systolic arterial pressure, percent in parentheses (decrease from initial) [2, 13]: 23%
Systolic arterial pressure [2, 14]: 153 mm Hg
Systolic arterial pressure, percent in parentheses (decrease from initial) [2, 15]: 22%
Systolic arterial pressure [2, 16]: 168 mm Hg
Systolic arterial pressure, percent in parentheses (decrease from initial) [2, 17]: 14%
Dose of calcium chloride causing arrhythmia ([3]; compound dose 5 mg/kg i.p.): 90.9
Dose of calcium chloride causing heart arrest ([3]; compound dose 5 mg/kg i.p.): 103.0
Dose of calcium chloride causing arrhythmia ([3]; compound dose 25 mg/kg i.p.): 111.0
Dose of calcium chloride causing heart arrest ([3]; compound dose 25 mg/kg i.p.): 112.0
Systolic arterial pressure, 5th day [4, 18]: 166 mm Hg
Systolic arterial pressure, 8th day [4, 18]: 157 mm Hg
Systolic arterial pressure, 10th day [4, 18]: 177.8 mm Hg
Systolic arterial pressure, 1st day after administration ([4]; p.o. once a day, benzyl 40 mg/kg (initial 195.8), allyl 50 mg/kg (initial 176.6), nifedipine dose not given (initial 184.0)): 148.6 mm Hg
Systolic arterial pressure, 2nd day before administration [4, 19]: 167.8 mm Hg
Systolic arterial pressure, 3rd day after administration [4, 19]: 157.4 mm Hg
Systolic arterial pressure, 4th day after administration [4, 19]: 155 mm Hg
Systolic arterial pressure, 4th day before administration [4, 19]: 156 mm Hg
Systolic arterial pressure, 3rd day before administration ([4]; p.o. once a day, benzyl 40 mg/kg, nifedipine dose not given): 153 mm Hg
Percent in parentheses (change of systolic pressure from initial), 1st day after administration [4, 20]: 24%
Percent in parentheses (change of systolic pressure from initial), 2nd day before administration [4, 20]: 14%
Percent in parentheses (change of systolic pressure from initial), 3rd day after administration [4, 20]: 20%
Percent in parentheses (change of systolic pressure from initial), 4th day after administration [4, 20]: 21%
Percent in parentheses (change of systolic pressure from initial), 4th day before administration [4, 20]: 20%
Percent in parentheses (change of systolic pressure from initial), 5th day [4, 20]: 15%
Percent in parentheses (change of systolic pressure from initial), 8th day [4, 20]: 20%
Percent in parentheses (change of systolic pressure from initial), 10th day [4, 20]: 9%
Percent in parentheses (change of systolic pressure from initial), 3rd day before administration ([4]; p.o., benzyl 40 mg/kg, nifedipine dose not given): 22%
Relative toxicity with respect to quinidine (LD50 / LD50 of quinidine) (white mice): 51.9
LD50 at 336 h [5]: 8100 mg/kg

CC[N+](C)(C)NCCC(=O)[O-] [3-(2,2-dimethyl-2-ethylhydrazinium)propionate monohydrate]
Average variation of the diastolic arterial pressure [1, 7]: -2 % of the initial
Average variation of the systolic arterial pressure [1, 7]: -5 % of the initial
Average variation of the diastolic arterial pressure [1, 8]: -17 % of the initial
Average variation of the systolic arterial pressure [1, 8]: -11 % of the initial
Average variation of the diastolic arterial pressure [1, 9]: -22 % of the initial
Average variation of the systolic arterial pressure [1, 9]: -13 % of the initial
Average variation of the diastolic arterial pressure [1, 10]: -23 % of the initial
Average variation of the systolic arterial pressure [1, 10]: -18 % of the initial
Average variation of the diastolic arterial pressure ([1]; 24 hours, 50 mg/kg i.p.): -25 % of the initial
Average variation of the systolic arterial pressure ([1]; 24 hours, 50 mg/kg i.p.): -18 % of the initial
Systolic arterial pressure ([2]; 1 hour after single p.o.): 185 mm Hg
Systolic arterial pressure, percent in parentheses (decrease from initial) [2, 11]: 7%
Systolic arterial pressure [2, 12]: 190 mm Hg
Systolic arterial pressure, percent in parentheses (decrease from initial) [2, 13]: 4%
Systolic arterial pressure [2, 14]: 193 mm Hg
Systolic arterial pressure, percent in parentheses (decrease from initial) [2, 15]: 3%
Systolic arterial pressure [2, 16]: 191 mm Hg
Systolic arterial pressure, percent in parentheses (decrease from initial) [2, 17]: 4%
Dose of calcium chloride causing arrhythmia ([3]; compound dose 5 mg/kg i.p.): 83.0
Dose of calcium chloride causing heart arrest ([3]; compound dose 5 mg/kg i.p.): 95.0
Dose of calcium chloride causing arrhythmia ([3]; compound dose 25 mg/kg i.p.): 91.0
Dose of calcium chloride causing heart arrest ([3]; compound dose 25 mg/kg i.p.): 98.0
Relative toxicity with respect to quinidine (LD50 / LD50 of quinidine) (white mice): 14.7
LD50 at 336 h [5]: 2300 mg/kg
Efficiency (animals with ectopic contractions reduced by 50% and more) ([6]; 3.0 mg/kg intravenously): 1/4
Efficiency (animals with ectopic contractions reduced by 50% and more) ([6]; 10.0 mg/kg intravenously): 2/4
Efficiency (animals with ectopic contractions reduced by 50% and more) ([6]; 20.0 mg/kg intravenously): 4/5
ED50 [6]: 8.2 mg/kg

C[N+](C)(CCc1ccccc1)NCCC(=O)[O-] [3-(2,2-dimethyl-2-phenylethylhydrazinium)propionate dihydrate]
Dose of calcium chloride causing arrhythmia ([3]; compound dose 5 mg/kg i.p.): 88.7
Dose of calcium chloride causing heart arrest ([3]; compound dose 5 mg/kg i.p.): 115.6
Dose of calcium chloride causing arrhythmia ([3]; compound dose 15 mg/kg i.p.): 110.5
Dose of calcium chloride causing heart arrest ([3]; compound dose 15 mg/kg i.p.): 142.5
Relative toxicity with respect to quinidine (LD50 / LD50 of quinidine) (white mice): 11.8
LD50 at 336 h [5]: 1850 mg/kg
Efficiency (animals with ectopic contractions reduced by 50% and more) ([6]; 10.0 mg/kg intravenously): 3/5
Efficiency (animals with ectopic contractions reduced by 50% and more) ([6]; 20.0 mg/kg intravenously): 4/5
ED50 [6]: 7.8 mg/kg

CCN(CC)CCNC(=O)c1ccc(N)cc1 [Novocainamide, reference compound]
Dose of calcium chloride causing arrhythmia ([3]; compound dose 10 mg/kg i.p.): 116.0
Dose of calcium chloride causing heart arrest ([3]; compound dose 10 mg/kg i.p.): 120.0
Dose of calcium chloride causing arrhythmia ([3]; compound dose 30 mg/kg i.p.): 127.0
Dose of calcium chloride causing heart arrest ([3]; compound dose 30 mg/kg i.p.): 138.0
Relative toxicity with respect to quinidine (LD50 / LD50 of quinidine) (white mice): 1.85
LD50 at 336 h [5]: 290 mg/kg
Efficiency (animals with ectopic contractions reduced by 50% and more) ([6]; 2.5 mg/kg intravenously): 1/5
Efficiency (animals with ectopic contractions reduced by 50% and more) ([6]; 5.0 mg/kg intravenously): 1/5
Efficiency (animals with ectopic contractions reduced by 50% and more) ([6]; 10.0 mg/kg intravenously): 3/5
Efficiency (animals with ectopic contractions reduced by 50% and more) ([6]; 20.0 mg/kg intravenously): 5/5
ED50 [6]: 7.6 mg/kg
